Experimental data reported in patent US20250092044A1, “Kinase Inhibitors” (Incyte Corporation, priority 2023, published 2025).

Assays:
[1] = molecular target: pseudo-kinase domain (JH2) of human V617F mutant JAK2 (Homo sapiens (Human), UniProt O60674, F794H/V617F/W659A/W777A); assay: JAK2 LanthaScreen JH2-V617F Binding Assay; conditions: read-out: JH2 V617F Bind IC50
Outline: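 Biotinylated His-Avi JAK2 JH2 (aa 536-812, V617F plus W659A/W777A/F794H; 0.26 nM) incubated 1 h at 25 °C with compound, 50 nM fluorescent JH2 tracer and 0.25 nM streptavidin-Tb in Tris pH 7.5 buffer. TR-FRET tracer displacement read; nonspecific binding with 2 mM ATP; IC50 from four-parameter fit.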

TRKA [2] = assay: TRKA Enzymatic Assay; format: biochemical
Outline: (§1)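 Reaction contained 0.58 nM TRKA, 1 mM ATP, 500 nM biotinylated TK substrate and 62.5 nM SEB reagent in HEPES 50 mM pH 7.0 with 10 mM MgCl2, 1 mM DTT and 0.1 mM orthovanadate, 0.5% DMSO, ATP-initiated. After 60 min at room temperature, the TR-FRET 665/620 nm ratio was read. IC50 was fitted from percent control activity versus log concentration, with DMSO and no-ATP wells as controls.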

TRKA [3] = molecular target: TRKA (Homo sapiens (Human), UniProt P04629); assay: TRKA Enzymatic Assay; format: biochemical; conditions: 1 mM ATP
Outline: as §1

CYP3A4 = CYP3A4 (Homo sapiens (Human), UniProt P08684); assay: Time Dependent Inhibition (TDI) of CYP; format: in vitro ADME; conditions: Kobs; human liver microsomes, 10 μM, 30 min pre-incubation with NADPH
From the text: Inhibition of P450 enzymes can be classified as either reversible or time-dependent inhibition (TDI). This in vitro assay is designed to detect an increase in CYP inhibition as a result of biotransformation and/or bioactivation (TDI). Potential mechanisms for this include the formation of a tight-binding, quasi-irreversible inhibitory metabolite complex or the inactivation of P450 enzymes by covalent adduct formation of metabolites. While this experiment employs a 10-fold dilution to diminish metabolite concentrations and therefore effects of reversible inhibition, it is possible (but not common) that a metabolite that is an extremely potent CYP inhibitor could result in a positive result.
The results are from a cocktail of CYP specific probe substrates at 4 times their Km concentrations for CYP2C9 (diclofenac), CYP2C19 (S-mephenytoin), CYP2D6 (bufuralol) and CYP3A4 (midazolam) using human liver microsomes (HLM). The HLMs were pre-incubated with test compound(s) at a concentration 10 μM for 30 min in the presence (+N) or absence (−N) of a NADPH regenerating system, diluted 10-fold, and incubated for 8 min in the presence of the substrate cocktail with the addition of a fresh aliquot of NADPH regenerating system. A calibration curve of metabolite standards was used to quantitatively measure the enzyme activity using LC-MS/MS. In addition, incubations with known time dependent inhibitors, tienilic aicd (CYP2C9), ticlopidine (CYP2C19), paroxetine (CYP2D6), and troleandomycin (CYP3A4), used as positive controls were pre-incubated 30 min with or without a NADPH regenerating system.
The percentage of control CYP2C9, CYP2C19, CYP2D6, and CYP3A4 activity remaining following pre-incubation of the compounds with NADPH is corrected for the corresponding control vehicle activity and then calculated based on 0 minutes as 100%. A linear regression plot of the natural log of % activity remaining versus time for each isozyme is used to calculate the slope. The −slope is equal to the rate of enzyme loss, or the Kobs. […] Examples 29-30 have Kobs from 0.005-0.02 indicating a medium to low potential for time dependent inhibition of CYPs corresponding to 70-90% CYP function remaining.

Sequence of TRKA (Homo sapiens (Human), UniProt P04629) (P04629 33-796, species assumed): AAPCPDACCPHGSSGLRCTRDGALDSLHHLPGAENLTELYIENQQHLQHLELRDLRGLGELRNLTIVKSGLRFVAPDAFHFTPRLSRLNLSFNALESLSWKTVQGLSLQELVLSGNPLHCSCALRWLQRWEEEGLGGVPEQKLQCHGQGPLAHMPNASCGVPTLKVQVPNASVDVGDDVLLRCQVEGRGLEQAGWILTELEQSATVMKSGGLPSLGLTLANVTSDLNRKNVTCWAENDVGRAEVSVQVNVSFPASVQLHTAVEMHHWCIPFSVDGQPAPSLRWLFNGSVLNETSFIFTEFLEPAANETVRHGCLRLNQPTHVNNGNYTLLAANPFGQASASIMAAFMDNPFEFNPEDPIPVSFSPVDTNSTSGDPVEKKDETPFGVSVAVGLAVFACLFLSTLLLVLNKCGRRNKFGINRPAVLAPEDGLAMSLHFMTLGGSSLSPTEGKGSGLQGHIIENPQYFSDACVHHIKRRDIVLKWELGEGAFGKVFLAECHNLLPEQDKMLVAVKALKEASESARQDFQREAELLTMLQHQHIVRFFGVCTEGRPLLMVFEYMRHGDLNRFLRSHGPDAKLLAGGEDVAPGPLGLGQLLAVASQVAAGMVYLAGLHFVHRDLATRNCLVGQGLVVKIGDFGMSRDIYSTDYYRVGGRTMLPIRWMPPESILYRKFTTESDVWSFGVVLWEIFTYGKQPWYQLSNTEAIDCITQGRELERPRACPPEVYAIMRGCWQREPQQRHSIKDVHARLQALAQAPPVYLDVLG
Sequence of pseudo-kinase domain (JH2) of human V617F mutant JAK2 (O60674 536-812 V617F/W659A/W777A/F794H): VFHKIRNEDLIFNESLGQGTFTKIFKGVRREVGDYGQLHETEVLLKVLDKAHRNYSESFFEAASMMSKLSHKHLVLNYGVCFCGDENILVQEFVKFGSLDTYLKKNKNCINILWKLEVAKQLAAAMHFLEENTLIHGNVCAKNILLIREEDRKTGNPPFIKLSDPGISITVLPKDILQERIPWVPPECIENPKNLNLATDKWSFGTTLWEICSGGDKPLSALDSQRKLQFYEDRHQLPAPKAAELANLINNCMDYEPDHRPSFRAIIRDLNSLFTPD
Sequence of CYP3A4 (P08684 whole entry): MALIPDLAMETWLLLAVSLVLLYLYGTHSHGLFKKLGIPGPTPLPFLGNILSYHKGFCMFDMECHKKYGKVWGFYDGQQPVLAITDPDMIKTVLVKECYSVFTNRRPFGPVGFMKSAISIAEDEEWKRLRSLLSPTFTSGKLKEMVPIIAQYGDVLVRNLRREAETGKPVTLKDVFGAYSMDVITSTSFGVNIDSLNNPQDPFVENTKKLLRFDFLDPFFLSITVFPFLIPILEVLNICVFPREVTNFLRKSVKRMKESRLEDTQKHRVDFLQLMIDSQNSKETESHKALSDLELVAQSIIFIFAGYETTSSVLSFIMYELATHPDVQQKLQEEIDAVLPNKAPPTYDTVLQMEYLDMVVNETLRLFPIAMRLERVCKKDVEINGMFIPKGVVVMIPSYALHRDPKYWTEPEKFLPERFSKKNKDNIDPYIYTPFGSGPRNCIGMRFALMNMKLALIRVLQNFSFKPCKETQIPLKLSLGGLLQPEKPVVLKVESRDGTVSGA

Which IC50 [1] does the source give for `CCNC(=O)c1ccc(-c2[nH]c3ncc4c(c3c2-c2ccc3c(cnn3C(C)C)c2)n([C@@H]2CC[C@@H](NC(=O)OC)C2)c(=O)n4C)cc1F` [Example 6, Methyl ((1R,3R)-3-(7-(4-(ethylcarbamoyl)-3-fluorophenyl)-8-(1-isopropyl-1H-indazol-5-yl)-3-methyl-2-oxo-3,6-dihydroimidazo[4,5-d]pyrrolo[2,3-b]pyridin-1(2H)-yl)cyclopentyl)carbamate] here?
Its IC50 is at most 10 nM.

What about the “Selectivity TRKA/JH2 V617F” value (TRKA [2]) of the same compound?
Its value is “***** (selectivity of >5000-fold to ≤12500-fold)”.

And the IC50 (TRKA [3])?
The IC50 was 1250 to 2500 nM.

How did the IC50 [1] turn out when `COC(=O)N[C@@H]1CC[C@@H](n2c(=O)n(C)c3cnc4[nH]c(-c5ccc(C(=O)NC6CC6)c(F)c5)c(-c5ccc6c(cnn6C(C)C)c5)c4c32)C1` [Example 8, Methyl ((1R,3R)-3-(7-(4-(cyclopropylcarbamoyl)-3-fluorophenyl)-8-(1-isopropyl-1H-indazol-5-yl)-3-methyl-2-oxo-3,6-dihydroimidazo[4,5-d]pyrrolo[2,3-b]pyridin-1(2H)-yl)cyclopentyl)carbamate] was run?
Its IC50 is at most 10 nM.

What about the “Selectivity TRKA/JH2 V617F” value (TRKA [2]) of the same compound?
The value was “****** (selectivity of >12500-fold)”.

And the IC50 (TRKA [3])?
Its IC50 is over 2500 nM.

For `COC(=O)N[C@@H]1CC[C@@H](n2c(=O)n(C)c3cnc4[nH]c(-c5ccc(C(=O)NC6CC6(F)F)c(F)c5)c(-c5ccc6c(cnn6C(C)C)c5)c4c32)C1` (stereo partly drawn) [Example 9, Methyl ((1R,3R)-3-(7-(4-((2,2-difluorocyclopropyl)carbamoyl)-3-fluorophenyl)-8-(1-isopropyl-1H-indazol-5-yl)-3-methyl-2-oxo-3,6-dihydroimidazo[4,5-d]pyrrolo[2,3-b]pyridin-1(2H)-yl)cyclopentyl)carbamate], which IC50 [1] is on record?
Its IC50 is at most 10 nM.

And the “Selectivity TRKA/JH2 V617F” value (TRKA [2])?
Its value is “****** (selectivity of >12500-fold)”.

What about the IC50 (TRKA [3]) of the same compound?
The IC50 was over 2500 nM.

What does the source list for `COC(=O)N[C@@H]1CC[C@@H](n2c(=O)n(C)c3cnc4[nH]c(-c5ccc(C(=O)NC6CC6C(F)(F)F)c(F)c5)c(-c5ccc6c(cnn6C(C)C)c5)c4c32)C1` (stereo partly drawn) [Example 10, Methyl ((1R,3R)-3-(7-(3-fluoro-4-((2-(trifluoromethyl)cyclopropyl)carbamoyl)phenyl)-8-(1-isopropyl-1H-indazol-5-yl)-3-methyl-2-oxo-3,6-dihydroimidazo[4,5-d]pyrrolo[2,3-b]pyridin-1(2H)-yl)cyclopentyl)carbamate]?
IC50 [1]: ≤ 10 nM; Selectivity TRKA/JH2 V617F (TRKA [2]): ****** (selectivity of >12500-fold); IC50 (TRKA [3]): > 2500 nM

`COC(=O)N[C@@H]1CC[C@@H](n2c(=O)n(C)c3cnc4[nH]c(-c5ccc(C(=O)NCC(F)(F)F)c(F)c5)c(-c5ccc6c(cnn6C(C)C)c5)c4c32)C1` [Example 11, Methyl ((1R,3R)-3-(7-(3-fluoro-4-((2,2,2-trifluoroethyl)carbamoyl)phenyl)-8-(1-isopropyl-1H-indazol-5-yl)-3-methyl-2-oxo-3,6-dihydroimidazo[4,5-d]pyrrolo[2,3-b]pyridin-1(2H)-yl)cyclopentyl)carbamate] was tested. Which IC50 [1] did it give?
The IC50 was at most 10 nM.

And the “Selectivity TRKA/JH2 V617F” value (TRKA [2])?
Its value is “****** (selectivity of >12500-fold)”.

And the IC50 (TRKA [3])?
The IC50 was over 2500 nM.

How did the IC50 [1] turn out when `CNC(=O)c1ccc(-c2[nH]c3ncc4c(c3c2-c2ccc3c(cnn3C(C)C)c2)n([C@@H]2CC[C@@H](NC(=O)OC)C2)c(=O)n4C)cc1F` [Example 12, Methyl ((1R,3R)-3-(7-(3-fluoro-4-(methylcarbamoyl)phenyl)-8-(1-isopropyl-1H-indazol-5-yl)-3-methyl-2-oxo-3,6-dihydroimidazo[4,5-d]pyrrolo[2,3-b]pyridin-1(2H)-yl)cyclopentyl)carbamate] was run?
Its IC50 is at most 10 nM.

And the “Selectivity TRKA/JH2 V617F” value (TRKA [2])?
The value was “****** (selectivity of >12500-fold)”.

What about the IC50 (TRKA [3]) of the same compound?
Its IC50 is over 2500 nM.

What does the source list for `COC(=O)N[C@@H]1CC[C@@H](n2c(=O)n(C)c3cnc4[nH]c(-c5ccc(C(=O)NC6(C(F)(F)F)CC6)c(F)c5)c(-c5ccc6c(cnn6C(C)C)c5)c4c32)C1` [Example 13, Methyl ((1R,3R)-3-(7-(3-fluoro-4-((1-(trifluoromethyl)cyclopropyl)carbamoyl)phenyl)-8-(1-isopropyl-1H-indazol-5-yl)-3-methyl-2-oxo-3,6-dihydroimidazo[4,5-d]pyrrolo[2,3-b]pyridin-1(2H)-yl)cyclopentyl)carbamate]?
IC50 [1]: ≤ 10 nM; Selectivity TRKA/JH2 V617F (TRKA [2]): ***** (selectivity of >5000-fold to ≤12500-fold); IC50 (TRKA [3]): > 2500 nM

With `COCCNC(=O)c1ccc(-c2[nH]c3ncc4c(c3c2-c2ccc3c(cnn3C(C)C)c2)n([C@@H]2CC[C@@H](NC(=O)OC)C2)c(=O)n4C)cc1F` [Example 14, Methyl ((1R,3R)-3-(7-(3-fluoro-4-((2-methoxyethyl)carbamoyl)phenyl)-8-(1-isopropyl-1H-indazol-5-yl)-3-methyl-2-oxo-3,6-dihydroimidazo[4,5-d]pyrrolo[2,3-b]pyridin-1(2H)-yl)cyclopentyl)carbamate] as the compound, how does the IC50 [1] read?
The IC50 was at most 10 nM.

And the “Selectivity TRKA/JH2 V617F” value (TRKA [2])?
Its value is “****** (selectivity of >12500-fold)”.

What about the IC50 (TRKA [3]) of the same compound?
Its IC50 is over 2500 nM.

Which IC50 [1] does the source give for `COCCN(C)C(=O)c1ccc(-c2[nH]c3ncc4c(c3c2-c2ccc3c(cnn3C(C)C)c2)n([C@@H]2CC[C@@H](NC(=O)OC)C2)c(=O)n4C)cc1F` [Example 15, Methyl ((1R,3R)-3-(7-(3-fluoro-4-((2-methoxyethyl)(methyl)carbamoyl)phenyl)-8-(1-isopropyl-1H-indazol-5-yl)-3-methyl-2-oxo-3,6-dihydroimidazo[4,5-d]pyrrolo[2,3-b]pyridin-1(2H)-yl)cyclopentyl)carbamate] here?
Its IC50 is at most 10 nM.

And the “Selectivity TRKA/JH2 V617F” value (TRKA [2])?
Its value is “****** (selectivity of >12500-fold)”.

What about the IC50 (TRKA [3]) of the same compound?
Its IC50 is over 2500 nM.

Which IC50 [1] does the source give for `COC(=O)N[C@@H]1CC[C@@H](n2c(=O)n(C)c3cnc4[nH]c(-c5ccc(C(=O)N6CCOCC6)c(F)c5)c(-c5ccc6c(cnn6C(C)C)c5)c4c32)C1` [Example 16, Methyl ((1R,3R)-3-(7-(3-fluoro-4-(morpholine-4-carbonyl)phenyl)-8-(1-isopropyl-1H-indazol-5-yl)-3-methyl-2-oxo-3,6-dihydroimidazo[4,5-d]pyrrolo[2,3-b]pyridin-1(2H)-yl)cyclopentyl)carbamate] here?
Its IC50 is at most 10 nM.

What about the “Selectivity TRKA/JH2 V617F” value (TRKA [2]) of the same compound?
Its value is “****** (selectivity of >12500-fold)”.

What about the IC50 (TRKA [3]) of the same compound?
The IC50 was 1250 to 2500 nM.

How did the IC50 [1] turn out when `CNC(=O)c1ccc(-c2[nH]c3ncc4c(c3c2-c2ccc3c(cnn3C(C)C)c2)n([C@@H]2CC[C@@H](NC(=O)OC)C2)c(=O)n4C)cc1` [Example 21, Methyl ((1R,3R)-3-(8-(1-isopropyl-1H-indazol-5-yl)-3-methyl-7-(4-(methylcarbamoyl)phenyl)-2-oxo-3,6-dihydroimidazo[4,5-d]pyrrolo[2,3-b]pyridin-1(2H)-yl)cyclopentyl)carbamate] was run?
The IC50 was at most 10 nM.

And the “Selectivity TRKA/JH2 V617F” value (TRKA [2])?
Its value is “****** (selectivity of >12500-fold)”.

What about the IC50 (TRKA [3]) of the same compound?
Its IC50 is 1250 to 2500 nM.

Which IC50 [1] does the source give for `CCNC(=O)c1ccc(-c2[nH]c3ncc4c(c3c2-c2ccc3c(cnn3C(C)C)c2)n([C@@H]2CC[C@@H](NC(=O)OC)C2)c(=O)n4C)cc1` [Example 23, Methyl ((1R,3R)-3-(7-(4-(ethylcarbamoyl)phenyl)-8-(1-isopropyl-1H-indazol-5-yl)-3-methyl-2-oxo-3,6-dihydroimidazo[4,5-d]pyrrolo[2,3-b]pyridin-1(2H)-yl)cyclopentyl)carbamate] here?
Its IC50 is at most 10 nM.

What about the “Selectivity TRKA/JH2 V617F” value (TRKA [2]) of the same compound?
The value was “***** (selectivity of >5000-fold to ≤12500-fold)”.

And the IC50 (TRKA [3])?
The IC50 was 1250 to 2500 nM.

With `[2H]C([2H])([2H])n1c(=O)n([C@@H]2CC[C@@H](NC(=O)OC)C2)c2c3c(-c4ccc5c(c4)COC5(C)C)c(-c4ccc(C(=O)N(C)C)cc4)[nH]c3ncc21` [Example 30, methyl ((1R,3R)-3-(8-(1,1-dimethyl-1,3-dihydroisobenzofuran-5-yl)-7-(4-(dimethylcarbamoyl)phenyl)-3-(methyl-d3)-2-oxo-3,6-dihydroimidazo[4,5-d]pyrrolo[2,3-b]pyridin-1(2H)-yl)cyclopentyl)carbamate] as the compound, how does the IC50 [1] read?
Its IC50 is at most 10 nM.

What about the “TDI 3A4” value (CYP3A4) of the same compound?
The value was “⋄⋄ (>0.005 to ≤0.02)”.

What about the “Selectivity TRKA/JH2 V617F” value (TRKA [2]) of the same compound?
The value was “***** (selectivity of >5000-fold to ≤12500-fold)”.

And the IC50 (TRKA [3])?
The IC50 was 250 to 1250 nM.
